Assay results published in ChEMBL document CHEMBL5370610, “Urotensin II Receptor Modulation with 1,3,4-Benzotriazepin-2-one Tetrapeptide Mimics” (J Med Chem, 2023).
The source made the active and inactive calls. No cut-off for these calls is given here.

What was measured:
[1] = molecular target: T1, Guanine nucleotide-binding protein G(q) subunit alpha (Homo sapiens) (UniProt P50148); assay: Antagonist activity at URP-activated RLucII-tagged Galpha-q (unknown origin) expressed in HEK293 cells co-expressing human UT/GFP10-tagged G-gamma at 10^-6 M by BRET assay (reference value: 100 +/- 4 %); format: cell-based; details: filed as antagonist, dose 1.0 10^-6M
T1 sequence (whole entry): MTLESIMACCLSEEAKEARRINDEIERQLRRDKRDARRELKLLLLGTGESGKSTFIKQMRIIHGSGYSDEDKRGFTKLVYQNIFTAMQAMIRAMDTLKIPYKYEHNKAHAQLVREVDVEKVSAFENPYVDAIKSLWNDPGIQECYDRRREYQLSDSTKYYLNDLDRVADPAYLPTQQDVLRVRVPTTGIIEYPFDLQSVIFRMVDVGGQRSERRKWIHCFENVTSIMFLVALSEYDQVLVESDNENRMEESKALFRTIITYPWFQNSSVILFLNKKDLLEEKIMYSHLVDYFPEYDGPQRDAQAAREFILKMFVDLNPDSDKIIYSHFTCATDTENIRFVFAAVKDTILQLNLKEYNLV

[2] = molecular target: T2, Guanine nucleotide-binding protein G(q) subunit alpha (Homo sapiens, UniProt P50148); assay: Antagonist activity at hUII-activated RLucII-tagged Galpha-q (unknown origin) expressed in HEK293 cells co-expressing human UT/GFP10-tagged G-gamma by BRET assay (reference value: 8.26 +/- 0.09); format: cell-based
T2 sequence (P50148 whole entry): T1 sequence (whole entry)

HEK293 [3] = assay: Agonist activity at RLucII-tagged Galpha-13 (unknown origin) expressed in HEK293 cells co-expressing human UT/GFP10-tagged G-gamma assessed as activation of Galpha-13 at 10^-5 M by BRET assay relative to hUII; format: cell-based; details: filed as agonist, dose 1.0 10^-5M
HEK293 [4] = assay: Agonist activity at RLucII-tagged Galpha-i (unknown origin) expressed in HEK293 cells co-expressing human UT/GFP10-tagged G-gamma assessed as activation of Galpha-i at 10^-5 M by BRET assay; format: cell-based; details: dose 1.0 10^-5M
HEK293 [5] = assay: Antagonist activity at URP-activated RLucII-tagged Galpha-i (unknown origin) expressed in HEK293 cells co-expressing human UT/GFP10-tagged G-gamma at 10^-6 M by BRET assay (reference value: 100 +/- 7 %); format: cell-based; details: filed as antagonist, dose 1.0 10^-6M
Aorta [6] = assay: Ex vivo modulatory effect on URP-induced contractile activity in Sprague-Dawley rat aortic ring at 10^-6 M pretreated for 30 mins followed by URP addition (reference value: 100 +/- 8 %); format: functional; details: 0.5 h, dose 1 10^-6M
HEK293 [7] = assay: Antagonist activity at hUII-activated RLucII-tagged Galpha-q (unknown origin) expressed in HEK293 cells co-expressing human UT/GFP10-tagged G-gamma at 10^-6 M by BRET assay (reference value: 100 +/- 4 %); format: cell-based; details: filed as antagonist, dose 1.0 10^-6M
[8] = Antagonist activity at URP-activated RLucII-tagged Galpha-i (unknown origin) expressed in HEK293 cells co-expressing human UT/GFP10-tagged G-gamma by BRET assay (reference value: 7.10 +/- 0.19); format: cell-based
Aorta [9] = assay: Ex vivo modulatory effect on hUII-induced contractile activity in Sprague-Dawley rat aortic ring (reference value: 8.37 +/- 0.08); format: functional, tissue-based
[10] = molecular target: T1, Guanine nucleotide-binding protein G(q) subunit alpha (Homo sapiens); assay: Agonist activity at RLucII-tagged Galpha-q (unknown origin) expressed in HEK293 cells co-expressing human UT/GFP10-tagged G-gamma assessed as activation of Galpha-q at 10^-5 M by BRET assay; format: cell-based; details: dose 1.0 10^-5M
[11] = molecular target: T2, Guanine nucleotide-binding protein G(q) subunit alpha; assay: Antagonist activity at URP-activated RLucII-tagged Galpha-q (unknown origin) expressed in HEK293 cells co-expressing human UT/GFP10-tagged G-gamma by BRET assay (reference value: 7.33 +/- 0.10); format: cell-based
Beta-arrestin-1 [12] = molecular target: T3, Beta-arrestin-1 (Homo sapiens, UniProt P49407); assay: Agonist activity at RLucII/GFP10-tagged beta-arrestin-1 (unknown origin) recruitment expressed in HEK293 cells co-expressing human UT assessed as beta-arrestin recruitment by BRET assay; format: cell-based
Aorta [13] = assay: Ex vivo modulatory effect on URP-induced contractile activity in Sprague-Dawley rat aortic ring (reference value: 8.06 +/- 0.27); format: functional, tissue-based
HEK293 [14] = assay: Antagonist activity at hUII-activated RLucII-tagged Galpha-i (unknown origin) expressed in HEK293 cells co-expressing human UT/GFP10-tagged G-gamma at 10^-6 M by BRET assay (reference value: 100 +/- 5 %); format: cell-based; details: filed as antagonist, dose 1.0 10^-6M
[15] = Agonist activity at RLucII-tagged Galpha-13 (unknown origin) expressed in HEK293 cells co-expressing human UT/GFP10-tagged G-gamma assessed as activation of Galpha-13 by BRET assay; format: cell-based
Beta-arrestin-1 [16] = molecular target: T3, Beta-arrestin-1; assay: Agonist activity at RLucII/GFP10-tagged beta-arrestin-1 (unknown origin) expressed in HEK293 cells co-expressing human UT assessed as beta-arrestin recruitment at 10^-5 M by BRET assay relative to hUII; format: cell-based; details: filed as agonist, dose 1.0 10^-5M
Aorta [17] = assay: Ex vivo modulatory effect on hUII-induced contractile activity in Sprague-Dawley rat aortic ring at 10^-6 M pretreated for 30 mins followed by hUII addition (reference value: 100 +/- 9 %); format: functional; details: 0.5 h, dose 1 10^-6M
[18] = Antagonist activity at hUII-activated RLucII-tagged Galpha-i (unknown origin) expressed in HEK293 cells co-expressing human UT/GFP10-tagged G-gamma by BRET assay (reference value: 7.41 +/- 0.15); format: cell-based
[19] = molecular target: T2, Guanine nucleotide-binding protein G(q) subunit alpha; assay: Agonist activity at RLucII-tagged Galpha-q (unknown origin) expressed in HEK293 cells co-expressing human UT/GFP10-tagged G-gamma assessed as activation of Galpha-q by BRET assay; format: cell-based
[20] = Agonist activity at RLucII-tagged Galpha-i (unknown origin) expressed in HEK293 cells co-expressing human UT/GFP10-tagged G-gamma assessed as activation of Galpha-i by BRET assay; format: cell-based
[21] = molecular target: T1, Guanine nucleotide-binding protein G(q) subunit alpha (Homo sapiens); assay: Agonist activity at RLucII-tagged Galpha-q (unknown origin) expressed in HEK293 cells co-expressing human UT/GFP10-tagged G-gamma assessed as activation of Galpha-q at 10^-5 M by BRET assay relative to hUII; format: cell-based; details: dose 1.0 10^-5M
HEK293 [22] = assay: Agonist activity at RLucII-tagged Galpha-i (unknown origin) expressed in HEK293 cells co-expressing human UT/GFP10-tagged G-gamma assessed as activation of Galpha-i at 10^-5 M by BRET assay relative to hUII; format: cell-based; details: filed as agonist, dose 1.0 10^-5M
Aorta [23] = assay: Ex vivo modulatory effect on hUII-induced contractile activity in Sprague-Dawley rat aortic ring at 10^-6 M pretreated for 30 mins followed by hUII addition; format: functional, tissue-based; details: dose 1.0 10^-6M
Aorta [24] = assay: Ex vivo modulatory effect on URP-induced contractile activity in Sprague-Dawley rat aortic ring at 10^-6 M pretreated for 30 mins followed by URP addition; format: functional, tissue-based; details: dose 1.0 10^-6M

T3 sequence (P49407 whole entry): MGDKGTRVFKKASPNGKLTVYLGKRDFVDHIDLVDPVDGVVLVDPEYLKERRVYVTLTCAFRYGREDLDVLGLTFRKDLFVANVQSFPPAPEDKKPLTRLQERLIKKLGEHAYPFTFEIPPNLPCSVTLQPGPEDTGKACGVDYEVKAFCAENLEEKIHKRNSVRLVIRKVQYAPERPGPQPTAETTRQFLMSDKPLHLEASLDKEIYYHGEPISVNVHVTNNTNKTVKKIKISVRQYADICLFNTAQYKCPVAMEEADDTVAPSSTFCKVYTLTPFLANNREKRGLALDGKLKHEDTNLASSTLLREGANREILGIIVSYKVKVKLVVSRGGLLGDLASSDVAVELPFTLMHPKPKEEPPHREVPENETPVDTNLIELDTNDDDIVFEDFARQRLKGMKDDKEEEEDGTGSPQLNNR

| Structure (SMILES) | Emax [1] [%] | EC50 [2] [nM] | EC50 (Aorta [9]) [nM] | Activity [10] | EC50 [11] [nM] | EC50 (Beta-arrestin-1 [12]) [nM] | EC50 (Aorta [13]) [nM] | EC50 [15] [nM] | Emax (Beta-arrestin-1 [16]) [%] | EC50 [19] [nM] | EC50 [20] [nM] | Emax [21] [%] | Emax ([21]; filed as agonist) [%] | Emax (HEK293 [3]) [%] | Emax at 1 µM (Aorta [6]) [%] | Emax (HEK293 [7]) [%] | Emax at 1 µM (Aorta [17]) [%] | Emax (HEK293 [22]) [%] | other results |
| --- | --- | --- | --- | --- | --- | --- | --- | --- | --- | --- | --- | --- | --- | --- | --- | --- | --- | --- | --- |
| NCCCCN1N=C(/C=C/c2ccc(O)cc2)c2ccc(C(=O)NCC(c3ccccc3)c3ccccc3)cc2N(Cc2ccc(-c3ccccc3)cc2)C1=O | 103 | 6.92 | 5.5 | inactive | 25.1 | 95.5 | 44.7 | 200 | 76 |  |  |  |  | 198 | 56 | 83 | 77 |  | Activity (HEK293 [4]): inactive; Emax (HEK293 [5]): 89%; EC50 [8]: 102 nM; Emax (HEK293 [14]): 95%; EC50 [18]: 53.7 nM |
| CN(Cc1ccccc1)C(=O)c1ccc2c(c1)N(Cc1ccc(-c3ccccc3)cc1)C(=O)N(CCCCN)N=C2/C=C/c1ccc(O)cc1 |  |  | 0.955 |  |  | 117 | 3.31 | 178 | 82 | > 10000 | 589 | 37 |  | 129 | 120 |  | 61 | 73 |  |
| NCCCCN1N=C(/C=C/c2ccc(O)cc2)c2ccc(C(=O)NCCCc3ccccc3)cc2N(Cc2ccc(-c3ccccc3)cc2)C1=O |  |  | 14.5 |  |  | 851 | 1.55 | 16.2 | 108 | > 10000 | 1170 | 26 |  | 104 | 161 |  | 123 | 75 |  |

Now from value to compound, other results behind:

| Emax [1] [%] | EC50 [2] [nM] | EC50 (Aorta [9]) [nM] | Activity [10] | EC50 [11] [nM] | EC50 (Beta-arrestin-1 [12]) [nM] | EC50 (Aorta [13]) [nM] | EC50 [15] [nM] | Emax (Beta-arrestin-1 [16]) [%] | EC50 [19] [nM] | EC50 [20] [nM] | Emax [21] [%] | Emax ([21]; filed as agonist) [%] | Structure (SMILES) | Emax (HEK293 [3]) [%] | Emax at 1 µM (Aorta [6]) [%] | Emax (HEK293 [7]) [%] | Emax at 1 µM (Aorta [17]) [%] | Emax (HEK293 [22]) [%] | other results |
| --- | --- | --- | --- | --- | --- | --- | --- | --- | --- | --- | --- | --- | --- | --- | --- | --- | --- | --- | --- |
|  |  |  |  |  | 0.49 |  | 45.7 | 78 | > 10000 | > 10000 |  | 52 | COc1ccc(/C=C/C2=NN(CCCCN)C(=O)N(Cc3ccc(-c4ccccc4)cc3)c3cc(C(=O)NCCOc4ccccc4)ccc32)cc1 | 102 |  |  |  | 50 | Activity (Aorta [23]): Active; Activity (Aorta [24]): Active |
|  |  |  |  |  |  |  |  |  | 8.91 |  |  | 101 | CC(C)[C@H](NC(=O)[C@@H]1CSSC[C@H](NC(=O)[C@H](C)N)C(=O)N[C@@H](Cc2ccccc2)C(=O)N[C@@H](Cc2c[nH]c3ccccc23)C(=O)N[C@@H](CCCCN)C(=O)N[C@@H](Cc2ccc(O)cc2)C(=O)N1)C(=O)O |  |  |  |  |  |  |
| 76 | 5.89 | 1.02 | inactive | 18.6 | 174 | 4.07 | 21.9 | 165 |  | > 10000 |  |  | NCCCCN1N=C(CCc2ccc(O)cc2)c2ccc(C(=O)NCCCc3ccccc3)cc2N(Cc2ccc(-c3ccccc3)cc2)C1=O | 119 | 112 | 65 | 143 | 45 |  |
